What was measured:
normal human astrocytes = assay: CCK-8 cell viability assay, normal human astrocytes; type: cell-based; details: 24 hr
Protocol: Cell viability was evaluated by a CCK-8 assay (Dojindo, Japan). Cells were seeded at a density of 4,000 cells per well in 100 μl of growth medium in 96-well plates and grown overnight. Then, the cells were exposed to antisense miR-20a alone, p28 alone or negative control or AmiR20-p28 over a range of concentrations and incubated for 24 hr. According to the manufacturer's instructions, 10 μl of CCK-8 solution was added to each well, followed by incubation for 1 hr at 37° C. The absorbance at 450 nm was determined by a multiplate reader.
Cell viability (%)=Abs(sample)−Abs(blank)/Abs(no treatment)−Abs(blank)×100

[1] = system: SJ-GBM2, CHLA-200, LN-229 and astrocytes; assay: Intracellular entry by qPCR detection of antisense miR-20a; type: cell-based, human; details: 1, 10, 100 and 1,000 nM, 24 hr
Text: (§1) Micro RNA enriched fraction was extracted using the miRNeasy Mini Kit (Qiagen, Catalog #217004) following the manufacturer's instructions. Stem loop real-time qPCR was used to analyze miRNA expression. We designed miR-20a stem loop RT primers and amplification primers according to a previously described method 79. cDNA was synthesized from extracted RNA using unique stem loop RT primers. The sequence of the stem loop primer for miR-20a was 5′-[…]-3′ (SEQ ID NO:7). Reverse transcriptase reactions contained the following reagents: 10 ng of RNA sample, 60 nM stem-loop RT primer, 1×RT buffer, 0.25 mM dNTP, and 4 U/μl reverse transcriptase. Reactions were performed by incubation at 16° C. for 30 min, 42° C. for 30 min and 85° C. for 5 min. Real-time PCR (7300 Real time PCR Systems, Applied Biosystems, CA) was performed using the specific forward primer for miR-20a (5′-[…]-3′ (SEQ ID NO:8)) and a universal reverse primer (5′-GTGCA GGGTC CGAGGT-3′ (SEQ ID NO:9)). The 20-μl PCR mixture included 1×SYBR Premix (Invitrogen), 2 μl of RT products and each forward and reverse primer at 10 nM. Reactions were performed by incubation in a 96-well plate at 95° C. for 30 sec, followed by 35 cycles of 95° C. for 30 sec and 60° C. for 30 sec. U6 was used as an internal control to normalize the level of target miRNAs. […]

SJ-GBM2-luc tumors = assay: Intracranial orthotopic SJ-GBM2-luc xenograft: bioluminescence and survival; type: in vivo, mice
Protocol: All animal experiments were performed in accordance with the use of animals in research and approved by IACUC. SJ-GBM2 cells stably expressing luciferase gene (pGL4.51 [luc2/CMV/Neo], Promega) were generated by a chemical transfection method (FuGENE HD, Promega) in the presence of G418 antibiotics (GoldBio). 4-5 weeks athymic mice were purchased from The Jackson Laboratory. SJ-GBM2-luc cell lines was maintained to 70% confluency and checked for their luminescence activity. Similar to the implantation method described previously, cells were resuspended in PBS at a final concentration of 10^6 cells/3 μl. Following anesthesia, a midline incision was made on the calvarium, extending from bregma to lambda sutures. At a position 2 mm posterior to bregma and 2 mm lateral to the […], a 3-mm hole was made in the skull. A 26-gauge Hamilton syringe was inserted into the hole, and 3 μl of 10^6 cells was injected slowly. The injection site was covered with sterile bone wax and sutured. As the first set of experiment, mice were randomly divided into the experimental groups and the dose finding studies were conducted with AmiR20-p28 at 0.1, and 1 mg/kg. AmiR20-p28 was administered every other day three times a week i.v. via the tail vein (200 μl/injection). As the second set of experiment, mice were randomly divided into the groups of PBS or AmiR20-p28 at 1 and 5 mg/kg (N=5). […] Mice were sacrificed based on the following humane endpoints such as >20% weight loss, the presence of labored respiration, abnormal behavior (e.g., paralysis), and loss of the ability to ambulate.
D-Luciferin potassium salt (GoldBio, #LUCK-100) at 150 mg/kg was injected intraperitoneally into the mice. Mice were anesthetized in a chamber with isoflurane/oxygen and positioned for bioluminescent imaging using a Spectral Lago X imaging system (Accela, Czech Republic). A series of images was acquired over a duration up to 30 min after the time of D-luciferin injection. Aura software (version 3.2) was used to compute regions of interest (ROIs) and integrate the total bioluminescence signal in each ROI. Data were analyzed based on radiance (photons/second/cm^2/steradian) in the ROIs. The radiance values were plotted for each animal in the experimental group to form the tumor growth curve. Overall survival was also evaluated based on their survival period (mice died due to disease or were sacrificed based on the humane endpoints criteria). For X-ray imaging, the anesthetized mice were positioned, and a Spectral Lago X imaging system was used to take images. Aura software was used to merge the images taken with X-ray and bioluminescent systems.

miR-20a = assay: Circulating miR-20a in sera of treated mice; type: in vivo; details: early-phase treatment group, 1 mg/kg; vs tumor-free mice (P=0.78)
Text: as §1

[2] = Example 6, 1 mg/kg i.v., late phase

Substance: AmiR20-p28: BBB-permeable tumor-navigating CPP p28 (Cys-p28) covalently linked to 2′ O-methyl antisense miR-20a (5′-maleimide)
- effect on cell viability (normal human astrocytes): negligible
- penetration into pGBM and aGBM cells (qPCR of antisense miR-20a) [1]: preferential and dose-dependent penetration
- tumor recurrence (SJ-GBM2-luc tumors; 1 and 5 mg/kg, continued or stopped treatment after four weeks, additional ~two months): neither the 1 mg/kg nor the 5 mg/kg dose groups exhibited any signs of tumor recurrence
- tumor growth (bioluminescence) (SJ-GBM2-luc tumors; 1 or 5 mg/kg i.v. 3× weekly, vs PBS or 0.1 mg/kg): significant inhibition of tumor growth
- overall survival rate (SJ-GBM2-luc tumors; Example 6, 1 mg/kg i.v., early phase): 100%
- tumor growth (bioluminescence) (SJ-GBM2-luc tumors; Example 6, 1 mg/kg i.v., early phase, start 10 days after cell injection): complete repression of tumor
- mice survived at day 49 (SJ-GBM2-luc tumors; [2]): 80%
- overall survival rate (SJ-GBM2-luc tumors; [2]): 40%
- tumor growth (bioluminescence) (SJ-GBM2-luc tumors; Example 6, 1 mg/kg i.v., late phase, start 40 days after cell injection): tumor progression was observed
- overall survival rate (SJ-GBM2-luc tumors; Example 6, 1 mg/kg i.v., middle phase): 80%
- tumor growth (bioluminescence) (SJ-GBM2-luc tumors; Example 6, 1 mg/kg i.v., middle phase, start 20 days after cell injection): sustained suppression of the tumor burden
- tumor growth (bioluminescence) (SJ-GBM2-luc tumors; Example 7, 1 mg/kg i.v., early phase, 10 days after cell injection): complete repression of tumor
- tumor growth (bioluminescence) (SJ-GBM2-luc tumors; Example 7, 1 mg/kg i.v., late phase, 42 days after cell injection): tumor progression
- tumor growth (bioluminescence) (SJ-GBM2-luc tumors; Example 7, 1 mg/kg i.v., middle phase, 21 days after cell injection): sustained suppression of tumor growth
- overall survival probability (SJ-GBM2-luc tumors; Example 7, 1 mg/kg, late phase): 60%
- tumor growth (bioluminescence) (SJ-GBM2-luc tumors; Example 7, 1 mg/kg, vs PBS and 0.1 mg/kg): significant repression in tumor growth
- serum miR-20a level (miR-20a): not significantly different from the basal level in the tumor-free mice

Source: patent US20260193647A1, “MIRNA-BASED CANCER THERAPY WITH A TUMOR-NAVIGATING PEPTIDE” (The Board of Trustees of the Universities of Illinois, priority 2022, published 2026)
